Reference: US20240226115A1, “AXL INHIBITOR COMPOUNDS” (ARCUS BIOSCIENCES, INC., priority 2021, published 2024)
pIC50: −log10 of the molar value.

Target: T1, recombinant human TYRO3 (Homo sapiens, UniProt Q06418)
T1 construct: purchased Invitrogen
T1 sequence (Q06418 41-890): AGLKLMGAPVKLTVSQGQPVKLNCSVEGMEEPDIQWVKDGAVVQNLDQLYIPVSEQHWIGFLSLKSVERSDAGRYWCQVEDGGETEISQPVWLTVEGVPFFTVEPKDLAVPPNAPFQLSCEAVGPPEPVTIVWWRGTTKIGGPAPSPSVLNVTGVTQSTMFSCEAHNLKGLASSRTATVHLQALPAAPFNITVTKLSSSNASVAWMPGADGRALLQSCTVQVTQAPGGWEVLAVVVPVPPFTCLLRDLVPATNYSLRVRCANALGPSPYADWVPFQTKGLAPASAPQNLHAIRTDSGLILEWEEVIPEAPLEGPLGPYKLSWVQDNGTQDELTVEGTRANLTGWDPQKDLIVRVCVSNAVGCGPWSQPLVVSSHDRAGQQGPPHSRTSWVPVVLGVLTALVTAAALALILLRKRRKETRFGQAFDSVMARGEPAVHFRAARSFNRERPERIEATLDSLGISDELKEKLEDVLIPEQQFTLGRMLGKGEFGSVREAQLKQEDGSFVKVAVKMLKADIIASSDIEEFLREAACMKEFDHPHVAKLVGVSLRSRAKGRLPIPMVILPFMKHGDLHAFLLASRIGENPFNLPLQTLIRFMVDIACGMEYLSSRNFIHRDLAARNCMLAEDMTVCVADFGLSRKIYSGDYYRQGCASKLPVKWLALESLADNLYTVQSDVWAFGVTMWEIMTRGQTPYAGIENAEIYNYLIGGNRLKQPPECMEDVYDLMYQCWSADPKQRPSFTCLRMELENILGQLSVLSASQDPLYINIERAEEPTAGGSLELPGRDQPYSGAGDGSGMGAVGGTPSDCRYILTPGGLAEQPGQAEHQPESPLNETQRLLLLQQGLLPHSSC
Experiment: HTRF KinEASE-TK biochemical potency, TYRO3
Details: 1 nM TYRO3, 700 μM ATP
Method: Purified recombinant human AXL, TYRO3 and MER proteins were purchased from Invitrogen™. 10 nM AXL, 2 nM TYRO3 or MER were incubated with varying concentrations of compounds in 50 mM HEPES, pH 7.4, 10 mM MgCl2, 0.01% BSA, 1 mM DTT and 2% DMSO in a total volume of 20 μl in a 384-well microplate (Corning™ #3640) at RT for 1 h. The AXL, TYRO3 and MER enzymatic reaction was initiated by transferring 10 μl of enzyme and compound mixture into 10 μl of 1.6 μM TK Substrate-biotin (HTRF® KinEASE-TK kit, Cisbio) and 1400 μM ATP pre-incubated in 50 mM HEPES, pH 7.4, 10 mM MgCl2, 0.01% BSA, 1 mM DTT in a 384-well microplate (Corning™ #3640) at RT, giving the final reaction conditions: 5 nM AXL, 1 nM TYRO3 or MER, 800 nM TK Substrate-biotin and 700 μM ATP in 50 mM HEPES, pH 7.4, 10 mM MgCl2, 0.01% BSA, 1 mM DTT and 1% DMSO with varying concentrations of compounds. Following 2 h incubation at RT, the AXL, TYRO3 and MER enzymatic reaction was stopped by transfer of 10 μl of reaction into 10 μl of detection mix (400 nM Streptavidin-XL665, 200-fold dilution TK Antibody-Cryptate and detection buffer, HTRF® KinEASE-TK kit, Cisbio) in a white 384-well microplate (Perkin Elmer, OptiPlate 384). After 1 h incubation at RT, the plate was put into a plate reader (Evision) to read at 665/620 nm (acceptor/donor) for HTRF. The value of the DMSO blank (MIN inhibition=100% activity) was used as a negative control. The positive control was established by adding 5 μl of enzyme and DMSO mixture into 10 μl of detection mix followed by addition of 5 μl of TK Substrate-biotin and ATP mixture (MAX inhibition=0% activity). To calculate the percent activity, Equation 1 was used. Ratio665/620 is the value at a given compound concentration: […]

C[C@@H]1CCCN1C1(C)CCc2ccc(-c3cnc4[nH]nc(-c5ccc6c(c5)OCCNC6=O)c4c3)cc2CC1 (stereo partly drawn) [Example 23, 8-(5-{7-Methyl-7-[(2R)-2-methylpyrrolidin-1-yl]-6,7,8,9-tetrahydro-5H-benzo[7]annulen-2-yl}-1H-pyrazolo[3,4-b]pyridin-3-yl)-2,3,4,5-tetrahydro-1,4-benzoxazepin-5-one]
pIC50: > 7.00

C[C@H]1CCCN1C1(C)CCc2ccc(-c3cnc4[nH]nc(-c5ccc6c(c5)OCCNC6=O)c4c3)cc2CC1 (stereo partly drawn) [Example 24, 8-(5-{7-Methyl-7-[(2S)-2-methylpyrrolidin-1-yl]-6,7,8,9-tetrahydro-5H-benzo[7]annulen-2-yl}-1H-pyrazolo[3,4-b]pyridin-3-yl)-2,3,4,5-tetrahydro-1,4-benzoxazepin-5-one]
pIC50: > 7.00

CC[C@@H]1CCCN1C1CCc2ccc(-c3cnc4[nH]nc(-c5ccc6c(c5)OCCNC6=O)c4c3)cc2CC1 (stereo partly drawn) [Example 25, 8-(5-{7-[(2R)-2-Ethylpyrrolidin-1-yl]-6,7,8,9-tetrahydro-5H-benzo[7]annulen-2-yl}-1H-pyrazolo[3,4-b]pyridin-3-yl)-2,3,4,5-tetrahydro-1,4-benzoxazepin-5-one]
pIC50: > 7.00

CC1(O)CCOc2cc(-c3n[nH]c4ncc(-c5ccc6c(c5)CCN(C5CCCC5)CC6)cc34)ccc21 (stereo not shown) [Example 26, 7-[5-(3-Cyclopentyl-2,3,4,5-tetrahydro-1H-3-benzazepin-7-yl)-1H-pyrazolo[3,4-b]pyridin-3-yl]-4-methyl-3,4-dihydro-2H-1-benzopyran-4-ol]
pIC50: > 7.00

CC1(O)CCCCc2cc(-c3n[nH]c4ncc(-c5ccc6c(c5)CCN(C5CCCC5)CC6)cc34)ccc21 (stereo not shown) [Example 27, 2-[5-(3-Cyclopentyl-2,3,4,5-tetrahydro-1H-3-benzazepin-7-yl)-1H-pyrazolo[3,4-b]pyridin-3-yl]-5-methyl-6,7,8,9-tetrahydro-5H-benzo[7]annulen-5-ol]
pIC50: 6.00 to 7.00

CC1(O)CCCOc2cc(-c3n[nH]c4ncc(-c5ccc6c(c5)CCN(C5CCCC5)CC6)cc34)ccc21 (stereo not shown) [Example 28, (8-[5-(3-Cyclopentyl-2,3,4,5-tetrahydro-1H-3-benzazepin-7-yl)-1H-pyrazolo[3,4-b]pyridin-3-yl]-5-methyl-2,3,4,5-tetrahydro-1-benzoxepin-5-ol)]
pIC50: 6.00 to 7.00

C[C@@H]1CCCN1C1CCc2ccc(-c3cnc4[nH]nc(-c5ccc6c(c5)OCCC6(C)O)c4c3)cc2CC1 (stereo partly drawn) [Example 29, 4-Methyl-7-(5-{7-[(2R)-2-Methylpyrrolidin-1-yl]-6,7,8,9-tetrahydro-5H-benzo[7]annulen-2-yl}-1H-pyrazolo[3,4-b]pyridin-3-yl)-3,4-dihydro-2H-1-benzopyran-4-ol]
pIC50: > 7.00

CC1(O)CCc2cc(-c3n[nH]c4ncc(-c5ccc6c(c5)CC[C@@H](N5CCCC5)CC6)cc34)ccc21 (stereo partly drawn) [Example 30, 1-Methyl-5-{5-[(7S)-7-(pyrrolidin-1-yl)-6,7,8,9-tetrahydro-5H-benzo[7]annulen-2-yl]-1H-pyrazolo[3,4-b]pyridin-3-yl}-2,3-dihydro-1H-inden-1-ol]
pIC50: > 7.00

CC1(O)CCOc2cc(-c3n[nH]c4ncc(-c5ccc6c(c5)CC[C@@H](N5CCCC5)CC6)cc34)ccc21 (stereo partly drawn) [Example 31, 4-Methyl-7-{5-[(7S)-7-(pyrrolidin-1-yl)-6,7,8,9-tetrahydro-5H-benzo[7]annulen-2-yl]-1H-pyrazolo[3,4-b]pyridin-3-yl}-3,4-dihydro-2H-1-benzopyran-4-ol]
pIC50: > 7.00

CC1(C)NS(=O)(=O)c2cc(-c3n[nH]c4ncc(-c5ccc6c(c5)CCC(N5CCCC5)CC6)cc34)ccc21 (stereo not shown) [Example 32, 3,3-Dimethyl-6-{5-[7-(pyrrolidin-1-yl)-6,7,8,9-tetrahydro-5H-benzo[7]annulen-2-yl]-1H-pyrazolo[3,4-b]pyridin-3-yl}-2,3-dihydro-1λ^6,2-benzothiazole-1,1-dione]
pIC50: > 7.00

C[C@@H]1CCCN1C1CCc2ccc(-c3cnc4[nH]nc(-c5ccc6c(c5)S(=O)(=O)NC6(C)C)c4c3)cc2CC1 (stereo partly drawn) [Example 33, 3,3-Dimethyl-6-(5-{7-[(2R)-2-methylpyrrolidin-1-yl]-6,7,8,9-tetrahydro-5H-benzo[7]annulen-2-yl}-1H-pyrazolo[3,4-b]pyridin-3-yl)-2,3-dihydro-1λ^6,2-benzothiazole-1,1-dione]
pIC50: > 7.00

CC1(C)NS(=O)(=O)c2cc(-c3n[nH]c4ncc(-c5ccc6c(c5)CCC(N5CCC[C@@H]5CO)CC6)cc34)ccc21 (stereo partly drawn) [Example 34, 6-(5-{7-[(2R)-2-(Hydroxymethyl)pyrrolidin-1-yl]-6,7,8,9-tetrahydro-5H-benzo[7]annulen-2-yl}-1H-pyrazolo[3,4-b]pyridin-3-yl)-3,3-dimethyl-2,3-dihydro-1λ^6,2-benzothiazole-1,1-dione]
pIC50: > 7.00

CC1(C)COc2cc(-c3n[nH]c4ncc(-c5ccc6c(c5)CCC(N5CCCC5)CC6)cc34)ccc2C(=O)N1 (stereo not shown) [Example 35, 3,3-Dimethyl-8-{5-[7-(pyrrolidin-1-yl)-6,7,8,9-tetrahydro-5H-benzo[7]annulen-2-yl]-1H-pyrazolo[3,4-b]pyridin-3-yl}-2,3,4,5-tetrahydro-1,4-benzoxazepin-5-one]
pIC50: > 7.00

C[C@@H]1CCCN1C1CCc2ccc(-c3cnc4[nH]nc(-c5ccc6c(c5)OCC5(CC5)NC6=O)c4c3)cc2CC1 (stereo partly drawn) [Example 36, 8-(5-{7-[(2R)-2-Methylpyrrolidin-1-yl]-6,7,8,9-tetrahydro-5H-benzo[7]annulen-2-yl}-1H-pyrazolo[3,4-b]pyridin-3-yl)-4,5-dihydro-2H-spiro[1,4-benzoxazepine-3,1′-cyclopropan]-5-one]
pIC50: > 7.00

C[C@@H]1CCCN1C1CCc2ccc(-c3cnc4[nH]nc(-c5ccc6c(c5)OCC5(CCC5)NC6=O)c4c3)cc2CC1 (stereo partly drawn) [Example 37, 8-(5-{7-[(2R)-2-Methylpyrrolidin-1-yl]-6,7,8,9-tetrahydro-5H-benzo[7]annulen-2-yl}-1H-pyrazolo[3,4-b]pyridin-3-yl)-4,5-dihydro-2H-spiro[1,4-benzoxazepine-3,1′-cyclobutan]-5-one]
pIC50: > 7.00

C[C@@H]1CCCN1C1CCc2ccc(-c3cnc4[nH]nc(-c5ccc6c(c5)C(=O)NC6(C)C)c4c3)cc2CC1 (stereo partly drawn) [Example 38, 3,3-Dimethyl-6-(5-{7-[(2R)-2-methylpyrrolidin-1-yl]-6,7,8,9-tetrahydro-5H-benzo[7]annulen-2-yl}-1H-pyrazolo[3,4-b]pyridin-3-yl)-2,3-dihydro-1H-isoindol-1-one]
pIC50: > 7.00

C[C@H]1CCCN1C1Cc2ccc(-c3cnc4[nH]nc(-c5ccc6c(c5)OCC(C)(C)NC6=O)c4c3)cc2C1 (stereo partly drawn) [Example 39, 3,3-Dimethyl-8-(5-{2-[(2S)-2-methylpyrrolidin-1-yl]-2,3-dihydro-1H-inden-5-yl}-1H-pyrazolo[3,4-b]pyridin-3-yl)-2,3,4,5-tetrahydro-1,4-benzoxazepin-5-one]
pIC50: > 7.00

Cc1cc2c(cc1-c1n[nH]c3ncc(-c4ccc5c(c4)CCC(N4CCC[C@H]4C)CC5)cc13)OCCNC2=O (stereo partly drawn) [Example 40, 7-Methyl-8-(5-{7-[(2R)-2-methylpyrrolidin-1-yl]-6,7,8,9-tetrahydro-5H-benzo[7]annulen-2-yl}-1H-pyrazolo[3,4-b]pyridin-3-yl)-2,3,4,5-tetrahydro-1,4-benzoxazepin-5-one]
pIC50: > 7.00

Cc1c(-c2n[nH]c3ncc(-c4ccc5c(c4)CCC(N4CCC[C@H]4C)CC5)cc23)ccc2c1OCCNC2=O (stereo partly drawn) [Example 41, 9-Methyl-8-(5-{7-[(2R)-2-methylpyrrolidin-1-yl]-6,7,8,9-tetrahydro-5H-benzo[7]annulen-2-yl}-1H-pyrazolo[3,4-b]pyridin-3-yl)-2,3,4,5-tetrahydro-1,4-benzoxazepin-5-one]
pIC50: > 7.00
